# Test results published in patent US7973064B2, “Method and composition for potentiating an opiate analgesic” (The Board of Trustees of the University of Illinois, priority 2001, dated 2011).
# Entries after “also recorded” stand apart in the source; their conditions may differ. Square brackets hold non-standard residues; d marks the D form. Peptide text beside a SMILES is read from it.
# Legend:
# [1] = system: streptozotocin-induced diabetic rat; details: cited from earlier work; for increase in tactile allodynia thresholds: systemic administration
# [2] = system: mice rendered tolerant and dependent on morphine; assay: Morphine tolerance in mice; format: in vivo, mouse; details: FIGS. 6-8
# Excerpt: (§1) FIGS. 6-8 illustrate the ability of an endothelin antagonist to […] opiate analgesic tolerance in mice and rats rendered tolerant and dependent on morphine. The test method used to generate the data set forth in FIGS. 6-8 is disclosed in H. N. Bhargava et al., J. Pharmacol. Exp. Ther., 252(3), pp. 901-907 (1990). The method disclosed therein was modified slightly for mice because the smaller mice could not survive the morphine dose administered to the rats.
# morphine tolerant mice = assay: Naloxone-precipitated morphine withdrawal in mice; format: in vivo, mouse; details: 1 morphine 75 mg pellet for 3 days, naloxone 1 mg/kg i.p., BQ123 3 μg i.c.v.
# Experimental: (§2) The effect of BQ123 (3 μg, i.c.v.) on naloxone-precipitated morphine withdrawal also was determined in mice. […] Tests also were performed to determine tolerance to analgesic effect in morphine tolerant dependent rats (6 morphine pellets in 7-day period).
# Male Sprague-Dawley rats [3] = assay: Colonic temperature in rats; format: in vivo, rat; details: for effect on body temperature, drug alone: morphine 8 mg/kg s.c. or BQ123 10 μg i.c.v.
# Experimental: (§3) Male Sprague-Dawley rats weighing 225 to 250 g (Sasco King Animal Co., Madison, Wis.) were housed in a room with controlled temperature (23±1° C.), humidity (50±10%), and light (6:00 a.m. to 6:00 p.m.) for at least four days prior to testing. Food and water were available to the rats continuously.
# (§4) The rats were divided into four groups (FIG. 1): group 1 received vehicle (saline 5 μl, i.c.v. over 5 minutes) and vehicle (saline 100 μl/kg s.c.); group 2 received vehicle (saline 100 μl/kg, s.c.) and BQ123 (10 μg, i.c.v. in a volume of 5 μl over 5 minutes); group 3 received morphine (8 mg/kg, s.c. in a volume of 100 μl/kg) and vehicle (saline 100 μl/kg, s.c.); and group 4 received morphine (8 mg/kg, s.c. in a volume of 100 μl/kg) and BQ123 (10 μg, i.c.v. in a volume of 5 μl over 5 minutes). Vehicle or BQ123 treatment was performed 30 minutes prior to morphine administration.
# Measurement of colonic temperature: The change in temperature in response to morphine was determined. The colonic temperature of each rat was recorded before and various times after morphine injection for a period of 360 minutes using a tele-thermometer. […] Rats used to measure tail flick latencies also were used to determine the colonic temperature. The differences in temperature response between various groups were compared by using student's t test. A value of P<0.05 was considered significant.
# [4] = Body weight in mice given BQ123 and morphine; format: in vivo, mouse; details: BQ123 and morphine 2, 4, or 8 mg/kg
# Experimental: Tests also were performed on mice.
# [5] = system: morphine tolerant dependent rats; assay: Tolerance to analgesic effect in morphine tolerant dependent rats; format: in vivo, rat; details: 6 morphine pellets in 7-day period, BQ123 10 μg i.c.v. twice a day for 7 days
# Experimental: as §1, §2
# mice [6] = assay: Tail flick analgesia in mice; format: in vivo, mouse; details: morphine 2, 4, and 8 mg/kg s.c.
# Experimental: (§5) Tests also were performed on mice. The mice were housed and fed similar to the rats as described above taking into consideration the size differential between rats and mice. The mice were divided into groups identical to the rats, but administered different amounts of vehicle, opiate analgesic, and endothelin antagonist, as disclosed hereafter.
# (§6) Measurement of analgesic effect: The analgesic response to morphine was determined by the tail flick method. The tail flick latencies to thermal stimulation were determined before and 30, 60, 90, 120, 180, 210, 240, 270, 300, and 360 minutes after the morphine injection. […] A cutoff time of 10 seconds was used to prevent damage to the tail. The basal latency was subtracted from that induced by morphine. […] The differences in analgesic response to different doses of morphine were compared by using student's t test. A value of P<0.05 was considered significant.
# Body weight in rats = format: in vivo, rat; details: before any drug and seven hours after morphine, BQ123 10 μg i.c.v., morphine 8 mg/kg s.c.
# Experimental: as §4
# Effect on body weight: Body weight was measured in all groups of rats of FIG. 1. […] Body weight was measured before administering any drug and at the end of the experiment, i.e., seven hours after the administration of morphine.
# mice [7] = details: BQ123 and morphine 2, 4, or 8 mg/kg
# Experimental: as §5
# Male Sprague-Dawley rats [8] = assay: Tail flick analgesia in rats; format: in vivo, rat; details: for effect on tail flick latency (analgesia), drug alone: morphine 8 mg/kg s.c. or BQ123 10 μg i.c.v.
# Experimental: as §3, §4, §6
# rat sciatic nerve = details: ET-1 200 to 800 μM applied to sciatic nerve, pretreatment; cited from earlier work
# Male Sprague-Dawley rats [9] = assay: Catalepsy bar test in rats; format: in vivo, rat; details: for catalepsy (bar test), drug alone: 45 minutes after morphine or vehicle, morphine 8 mg/kg s.c. or BQ123 10 μg i.c.v.
# Experimental: as §3, §4
# Measurement of catalepsy: Rats were tested for catalepsy by the bar test. An aluminum bar 5 mm in diameter was placed 4 cm above the floor, and the animal's forepaw was gently placed on the bar. The time required for the animal to place at least one paw on the floor was measured with a maximum term of observation of 180 seconds. Behavioral evaluation of catalepsy was performed 45 minutes after the administration of morphine or its vehicle. Statistical tests were performed as described above.
# [10] = system: Cr1:CD-1(ICR)BR mice and CXBK mice; details: ET-1 intraperitoneally, through μ1 sensitive pathway; cited from earlier work
# [11] = BQ123 10 μg i.c.v. 30 minutes prior to morphine 8 mg/kg s.c.
compound,measurement,setting,value
CCCCN(CCCC)C(=O)CN1C[C@H](c2ccc3c(c2)OCO3)[C@@H](C(=O)O)[C@@H]1c1ccc(OC)cc1 [ABT-627],antinociceptive effect following chronic administration,[1]; in drinking water for 7 days,maintained
same,increase in tactile allodynia thresholds,[1],40 to 50%
Cc1noc(NS(=O)(=O)c2cccc3c(N(C)C)cccc23)c1C [BMS182874],morphine tolerance after treatment with endothelin antagonist,[2],reduced morphine tolerance
"CC(C)C[C@@H]1NC(=O)[C@@H](C(C)C)NC(=O)[C@@H]2CCCN2C(=O)[C@@H](CC(=O)O)NC(=O)[C@@H](Cc2c[nH]c3ccccc23)NC1=O [BQ123, cyclo(-D-Trp-D-Asp-Pro-D-Val-Leu-)] (cyclo(L[dW][dD]P[dV]))",effect on naloxone-precipitated morphine withdrawal symptoms,morphine tolerant mice,"did not affect hypothermia, loss of body weight, jumping behavior, falls, diarrhea, fecal boli, urination, ptosis, writhing, and rearing behavior during withdrawal; also recorded: no effect on temperature, body weight, urination, diarrhea, jumping behavior, number of falls, ptosis, and grooming"
same,duration of morphine hyperthermia in BQ123 pretreated rats,Male Sprague-Dawley rats [3]; [11],more than six
same,effect of BQ123 on hyperthermic effect of morphine,Male Sprague-Dawley rats [3]; [11],significantly potentiated
same,"effect on body temperature, drug alone",Male Sprague-Dawley rats [3],did not produce any significant effect on body temperature
same,effect on body weight,[4],not affected
same,development of tolerance to morphine analgesic effect,[5],did not become tolerant to morphine
same,duration of morphine analgesia with BQ123,mice [6]; BQ123 3 μg i.c.v.,more than 4 hours
same,effect of BQ123 on morphine analgesia,mice [6]; BQ123 3 μg i.c.v.,significantly potentiated morphine analgesia; also recorded: analgesia was potentiated
same,change in body weight,Body weight in rats,no change in body weight
same,effect of BQ123 on morphine-induced hypothermia,mice [7],not affected
same,morphine tolerance after treatment with endothelin antagonist,[2],reduced morphine tolerance
same,duration of morphine analgesia in BQ123 pretreated rats,Male Sprague-Dawley rats [8]; [11],more than six
same,effect of BQ123 on analgesic effect of morphine,Male Sprague-Dawley rats [8]; [11],significantly potentiated
same,"effect on tail flick latency (analgesia), drug alone",Male Sprague-Dawley rats [8],did not produce any significant effect on tail flick latency
same,effect on ET-1 induced hindpaw flinching,rat sciatic nerve,blocked
same,"catalepsy (bar test), drug alone",Male Sprague-Dawley rats [9],did not produce any cataleptic effect
same,effect of BQ123 pretreatment on morphine-induced catalepsy,Male Sprague-Dawley rats [9]; [11],did not produce any change in morphine-induced catalepsy
CN1CC[C@]23c4c5ccc(O)c4O[C@H]2[C@@H](O)C=C[C@H]3[C@H]1C5 [morphine],"duration of hyperthermia, morphine alone",Male Sprague-Dawley rats [3]; morphine 8 mg/kg s.c.,about four
same,"effect on body temperature, drug alone",Male Sprague-Dawley rats [3],produced significant hyperthermia
same,effect on ET-1 induced nociception,[10],could be blocked by morphine
same,"duration of increase in tail flick latency, morphine alone",mice [6],1.5 h
same,"effect on mouse tail flick latency, morphine alone",mice [6],significant increase in mouse tail flick latency
same,change in body weight,Body weight in rats,neither morphine nor BQ123 produced any acute effect on body weight
same,"time after administration until which tail flick latencies were significantly increased, morphine alone",Male Sprague-Dawley rats [8]; morphine 8 mg/kg s.c.,three
same,"effect on tail flick latency (analgesia), drug alone",Male Sprague-Dawley rats [8],produced significant analgesia
same,tail flick latency,"Male Sprague-Dawley rats [8]; morphine 8 mg/kg s.c., control about 2 seconds",more than 10 seconds
same,increase in tactile allodynia thresholds,[1],90%
same,effect on ET-1 induced hindpaw flinching,rat sciatic nerve,completely blocked
same,"catalepsy (bar test), drug alone",Male Sprague-Dawley rats [9],significantly increased catalepsy
